Patent US9862746B2, “Compositions and methods relating to hindering DOT1L recruitment by MLL-fusion proteins” (The Regents of the University of Michigan, priority 2013, dated 2018)
Read-outs that look alike come from different tables or passages of the source.

Experiments:
[1] = target: T1, ENL (Homo sapiens, UniProt Q03111); assay: SPR competitive binding assay of small molecules, ENL; details: SPR competitive based assay; read-out: ENL IC50 ± SD
T1 construct: against AF9(497-568) and ENL (489-559) proteins running different tested concentrations over CM5 chip; MBP (pMSCG9-LIC vector); made in house; host or cells: Escherichia coli BL21 (DE3)
T1 sequence (Q03111 489-559): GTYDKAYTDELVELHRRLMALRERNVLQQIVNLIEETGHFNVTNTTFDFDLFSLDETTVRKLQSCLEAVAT
Excerpt: (§1) To further validate the binding of the confirmed compounds and identify potential promiscuous inhibitors, several secondary assays have been developed to support hit confirmation and the hit-to-probe optimization process. In order to determine that the compounds bind effectively to the target and disrupt protein-protein interaction, a SPR competitive binding assay was used. This assay uses a platform that differs from the FP-based assay where DOT1L recombinant protein (residues […]) is immobilized on a CM5 chip, allowing for testing of the inhibitors for their ability to disrupt AF9-DOT1L protein-protein interactions.
This class of compounds was also tested for their binding against ENL protein, which is highly homologous with AF9.

[2] = target: T2, AF9 (Homo sapiens, UniProt P42568); assay: Saturation Transfer Difference (STD) NMR; format: binding
T2 sequence (P42568 1-568): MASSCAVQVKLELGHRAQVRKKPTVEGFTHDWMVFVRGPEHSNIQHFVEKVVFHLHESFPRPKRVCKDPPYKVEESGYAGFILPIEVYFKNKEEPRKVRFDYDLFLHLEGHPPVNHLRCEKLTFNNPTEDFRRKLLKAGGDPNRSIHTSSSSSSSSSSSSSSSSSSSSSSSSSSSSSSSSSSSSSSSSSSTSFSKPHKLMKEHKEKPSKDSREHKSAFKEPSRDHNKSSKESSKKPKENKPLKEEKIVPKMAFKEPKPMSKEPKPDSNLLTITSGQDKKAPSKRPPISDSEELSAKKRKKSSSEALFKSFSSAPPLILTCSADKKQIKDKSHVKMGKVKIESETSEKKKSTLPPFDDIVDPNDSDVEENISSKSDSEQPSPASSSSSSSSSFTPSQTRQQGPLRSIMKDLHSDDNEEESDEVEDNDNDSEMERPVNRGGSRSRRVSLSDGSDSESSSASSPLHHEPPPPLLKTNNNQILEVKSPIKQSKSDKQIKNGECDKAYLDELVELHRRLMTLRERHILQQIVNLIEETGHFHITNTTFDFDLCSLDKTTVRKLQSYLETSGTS
Description: (§2) C) Globally fitted concentration series of 38 (100, 50, 25, 12.5 and 6.25 μM) binding to immobilized AF9 using OctetRed System (see Example 12).
(§3) To provide further validation of the hit selection in addition to the biochemical assays Saturation Transfer Difference (STD), NMR spectroscopy was used. NMR spectroscopy has been successfully utilized to detect and characterize the direct binding of small-molecule compounds to large biomolecules. This technique is also allowing characterization of the binding interactions and maps the ligand-protein contacts in the bound state, delineating which chemical moieties of the ligand molecule are key for molecular recognition by the protein (group epitope mapping, FIG. 20A). […] The direct binding of 38 was also confirmed with ThermoFluor biophysical binding assay. ThermoFluor exploits a well-known biophysical phenomenon where small changes in the intrinsic melting temperature of proteins in the presence of ligands are related to the equilibrium-binding constant. Compounds that interact with the native form of the protein will shift the equilibrium to the left, increasing the Tm, the temperature at which half the protein is unfolded. In the presence of compound 38, the Tm of MBP-AF9 protein increases in a dose-dependent manner, giving ΔTm of 1.2 degree in […] (FIG. 20B).

[3] = target: T3, MBP-AF9 (Homo sapiens, UniProt P42568); assay: ThermoFluor binding assay, MBP-AF9
T3 sequence (P42568 497-568): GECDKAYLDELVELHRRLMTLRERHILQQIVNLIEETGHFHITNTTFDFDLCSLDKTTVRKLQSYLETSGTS
Description: as §2, §3

[4] = target: MBP tag (Escherichia coli, UniProt P0AEX9); assay: ThermoFluor binding assay, MBP tag only
[5] = target: T2, AF9; assay: OctetRed Bio-Layer Interferometry binding to immobilized AF9; details: OctetRed BLI
Description: as §2
Finally, an orthogonal measure of the disruption of the DOT1L/AF9 protein interaction was obtained using OctetRed system with Bio-Layer Interferometry (BLI) technology. This technology is allowing label-free, real-time biomolecular analysis and determination of binding kinetics and affinity. […] Using global fitting of the binding data in several tested concentrations, the kinetic parameters were calculated. The observed KD values ranged from 10 μM to 50 μM, consistent with the KD from steady state calculations.

[6] = system: MLL-AF9 transformed mouse cells; assay: Cell growth of MLL-AF9 transformed mouse cells; format: cell-based; details: 216 h
Excerpt: (§4) FIG. 23 presents cell growth curves of A) MLL-AF9 and B) Hoxa9/Meis1 transformed mouse cells and C) adult LSKs after treatment with 38. D) H3K79 methylation after 6 days treatment with 38 and EPZ004777 DOT1L inhibitor (see, e.g., Daigle, et al., Cancer Cell 20, 53-65 (2011)).
(§5) This example involves the assessment of cellular effects of compound 38. […] Compound 38 inhibited growth of MLL-AF9 cells in a dose-dependent manner (FIG. 23A), with cell growth inhibition starting after 4 days of treatment. […] The hypothesis predicts that compounds that can block the DOT1L recruitment, but not its catalytic activity, will not affect normal hematopoiesis, as well as the global level of H3K79 methylation. To test this hypothesis, the toxicity of compound 38 was tested on purified LSK (lin-sca-1+ckit+) progenitors from adult wild type mice (FIG. 23C).

[7] = system: HM2 cells stably expressing Hoxa9 and Meis 1; assay: Cell growth of HM2 (Hoxa9/Meis1) cells; format: cell-based, mouse
Excerpt: as §4, §5

[8] = system: LSK (lin-sca-1+ckit+) progenitors; assay: Toxicity on purified adult LSK progenitors; format: cell-based, mouse; details: 50 μM and 25 μM, up to seven days in culture
Excerpt: as §4, §5

[9] = system: H3K79 methylation; assay: Global H3K79 methylation in MLL-AF9 transformed cells; format: cell-based, mouse; details: 6 days treatment of MLL-AF9 transformed cells
Excerpt: as §4, §5

[10] = target: T4, AF9 (Homo sapiens, UniProt P42568); assay: SPR competitive binding assay of small molecules, AF9-DOT1L; design: against AF9(497-568) and ENL (489-559) proteins running different tested concentrations over CM5 chip; GB1 (pGB1-LIC vector); made in house; host or cells: Escherichia coli BL21 (DE3); details: SPR competitive based assay; read-out: AF9 IC50 ± SD
T4 sequence (P42568 497-568): T3 sequence (P42568 497-568)
Excerpt: Several secondary assays have already been developed to support hit confirmation and the hit-to-probe optimization process. The established and optimized SPR-based competitive assay utilizing DOT1L protein (826-1095) immobilized on the CM5 sensor chip was used as a secondary counter screen assay to validate binding of compounds to AF9. […] Both assays gave similar IC50 values.
as §1

CCc1ccc(S(=O)(=O)N2c3ccccc3NC3=C(C(=O)CCC3)C2c2ccco2)cc1 (racemic) [Compound 38]
IC50 [1]: 30.7 ± 7.7 µM
STD effects (direct binding to AF9) [2]: strong STD effects
ΔTm of MBP-AF9 protein [3]: 1.2 degree
thermal stability of tag MBP only [4]: did not show any changes in thermal stability
Kd ([5]; several tested concentrations, read-out: KD values, global fitting of binding data): 10 to 50 µM
Kd ([5]; read-out: binding affinity (KD), steady state analysis): 35 µM
inhibition at 25 µM ([6]; day 9, 25 μM): 50%
inhibition at 50 µM ([6]; day 9, 50 μM): ~90%
cell growth of HM2 cells [7]: not affected
toxicity / growth inhibition of adult LSKs [8]: not toxic to normal hematopoiesis
global H3K79 methylation level [9]: not affected
IC50 [10]: 40 ± 1.5 µM
